{"source": "paper PMC9649612", "about": "“Molecular docking and biochemical validation of (-)-syringaresinol-4-O-β-D-apiofuranosyl-(1→2)-β-D-glucopyranoside binding to an allosteric site in monoamine transporters” (Frontiers in Pharmacology, 2022)", "key": {"WT-hSERT [1]": {"target": "T1, WT-hSERT (Homo sapiens, UniProt P31645)", "T1 construct": "expressed in transfected cells; host or cells: HeLa (ATCC CCL-2), transient, pcDNA3.1", "assay": "APP+ transport (uptake) in HeLa cells expressing WT-hSERT", "assay_type": "cell-based", "details": "2 μM APP+ 5 min, SAG added 5 min prior, intact HeLa cells", "method": "(§1) HeLa cells were cultured in Dulbecco’s Modified Eagle’s Medium supplemented with 10% fetal bovine serum, 100 units/ml penicillin, and 100 μg/ml streptomycin at 37°C in a humidified 5% CO2 incubator. Cells were plated in a 6-well culture plate and grown overnight. Cells at ∼70% confluence were transfected with hSERT, hDAT, or hNET cDNA in pcDNA3.1 by lipofectamine 2000. Transfected cells were incubated for 24 h at 37°C with 5% CO2 and then transferred into a 12-well plate placed with polylysine coated slides. After grown for additional 12–16 h, the cells were assayed for APP^+ or ASP^+ fluorescence image acquisition.\n(§2) The cells expressing WT or mutants of hSERT, hDAT, or hNET were wet mounted on polylysine coated glass slides in 12-well plates and applied for the indicated treatments. […] The extent of APP^+ accumulated in the cells was determined by confocal imaging analysis. ASP^+ binding to SERT in the cell membrane was measured with digitonin-permeabilized cells ([Li M. et al., 2022a]). […] After removing excess ASP^+ by rapid washing three times, ASP^+ binding was determined by confocal imaging analysis.\n(§3) Images were analyzed using Zen Blue software.\n(§4) Nonlinear regression fits of experimental and calculated data were performed with Origin (Origin Lab). […]"}, "[2]": {"target": "T2, hSERT T497A (S2 site mutant) (Homo sapiens, UniProt P31645, T497A)", "T2 construct": "expressed in transfected cells; host or cells: HeLa (ATCC CCL-2), transient, pcDNA3.1", "assay": "ASP+ binding in digitonin-permeabilized HeLa cells expressing hSERT T497A", "details": "10 μM ASP+, read-out: SAG IC50 for binding", "method": "(§5) The mutants used for this study were constructed in the WT background carried by the expression plasmids for hSERT, hDAT, or hNET under the control of CMV promotor in pcDNA3.1 vector, respectively. All mutants were generated using the Mut Express II Fast Mutagenesis Kit (Vazyme) and confirmed by full-length DNA sequencing.\nas §1, with “Transfected cells were incubated for 24 h at 37°C with 5% CO2 and then transferred into a 12-well plate placed with polylysine coated slides.” left out\nas §2\n(§6) Images were analyzed using Zen Blue software. […]"}, "WT-hDAT": {"target": "T3, WT-hDAT (Homo sapiens, UniProt Q01959)", "T3 construct": "expressed in transfected cells; host or cells: HeLa", "assay": "APP+ transport (uptake) in HeLa cells expressing WT-hDAT", "assay_type": "cell-based", "details": "WT hDAT; APP+ transport, intact HeLa cells; read-out: SAG IC50", "method": "as §1, §2, §3, §4"}, "WT-hSERT [3]": {"target": "T1, WT-hSERT", "assay": "ASP+ binding in digitonin-permeabilized HeLa cells expressing WT-hSERT", "details": "10 μM ASP+ 5 min, 25 μg/ml digitonin-permeabilized HeLa cells, read-out: SAG IC50 for binding", "method": "as §1, §2, §3, §4"}, "[4]": {"target": "T4, hSERT S438T (S1 site mutant) (Homo sapiens, UniProt P31645, S438T)", "T4 construct": "expressed in transfected cells; host or cells: HeLa", "assay": "APP+ transport in HeLa cells expressing hSERT mutant S438T", "assay_type": "cell-based", "details": "2 μM APP+ 5 min, intact HeLa cells, read-out: SAG IC50 for transport", "method": "as §5\nas §1, with “Transfected cells were incubated for 24 h at 37°C with 5% CO2 and then transferred into a 12-well plate placed with polylysine coated slides.” left out\nas §2, §6"}, "[5]": {"target": "T5, hSERT S559A (S2 site mutant) (Homo sapiens, UniProt P31645, S559A)", "T5 construct": "expressed in transfected cells; host or cells: HeLa (ATCC CCL-2), transient, pcDNA3.1", "assay": "ASP+ binding in digitonin-permeabilized HeLa cells expressing hSERT S559A", "details": "10 μM ASP+, read-out: SAG IC50 for binding", "method": "as §5\nas §1, with “Transfected cells were incubated for 24 h at 37°C with 5% CO2 and then transferred into a 12-well plate placed with polylysine coated slides.” left out\nas §2, §6"}, "[6]": {"target": "T6, hDAT A480G (S2 site mutant) (Homo sapiens, UniProt Q01959, A480G)", "T6 construct": "expressed in transfected cells; host or cells: HeLa", "T6 sequence (Q01959 whole entry A480G)": "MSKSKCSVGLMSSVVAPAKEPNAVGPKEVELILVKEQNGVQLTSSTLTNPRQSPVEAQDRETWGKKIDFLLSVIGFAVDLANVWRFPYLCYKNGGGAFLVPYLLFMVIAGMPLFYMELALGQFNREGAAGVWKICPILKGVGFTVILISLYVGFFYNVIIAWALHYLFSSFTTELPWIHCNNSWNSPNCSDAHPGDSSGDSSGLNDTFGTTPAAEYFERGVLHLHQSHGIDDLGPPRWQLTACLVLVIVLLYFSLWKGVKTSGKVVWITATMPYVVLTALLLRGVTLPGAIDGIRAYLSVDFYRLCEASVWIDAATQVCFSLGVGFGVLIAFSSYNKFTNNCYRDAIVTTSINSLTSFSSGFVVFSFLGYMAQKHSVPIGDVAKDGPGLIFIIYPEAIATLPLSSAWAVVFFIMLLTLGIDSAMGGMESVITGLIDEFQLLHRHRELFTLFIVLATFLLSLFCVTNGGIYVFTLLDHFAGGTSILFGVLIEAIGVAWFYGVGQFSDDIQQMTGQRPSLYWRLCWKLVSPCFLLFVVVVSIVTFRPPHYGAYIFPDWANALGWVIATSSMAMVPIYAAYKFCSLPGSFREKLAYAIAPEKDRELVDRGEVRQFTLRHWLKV", "assay": "APP+ transport in HeLa cells expressing hDAT mutant A480G", "assay_type": "cell-based", "details": "intact HeLa cells, read-out: SAG IC50", "method": "as §5\nas §1, with “Transfected cells were incubated for 24 h at 37°C with 5% CO2 and then transferred into a 12-well plate placed with polylysine coated slides.” left out\nas §2, §6"}}}
{"substance": "(-)-Syringaresinol-4-O-β-D-apiofuranosyl-(1→2)-β-D-glucopyranoside [SAG]", "values": [{"measurement": "IC50", "setting": "WT-hSERT [1]", "value": "2.54 ± 0.13", "unit": "µM"}, {"measurement": "IC50", "setting": "[2]", "value": "152 ± 12", "unit": "µM"}, {"measurement": "IC50", "setting": "WT-hDAT", "value": "31.9 ± 2.8", "unit": "µM"}, {"measurement": "IC50", "setting": "WT-hSERT [3]", "value": "7.88 ± 0.35", "unit": "µM"}, {"measurement": "IC50", "setting": "[4]", "value": "10.3 ± 0.49", "unit": "µM"}, {"measurement": "IC50", "setting": "[5]", "value": "126 ± 8.1", "unit": "µM"}, {"measurement": "IC50", "setting": "[6]", "value": "239 ± 14", "unit": "µM"}]}
